{"source": "ChEMBL document CHEMBL4368934", "about": "“Chemistry and biology of ophiobolin A and its congeners” (Bioorg Med Chem Lett, 2019)", "key": {"[1]": {"system": "Mycobacterium tuberculosis", "assay": "Antibacterial activity against Mycobacterium tuberculosis H37Ra by microplate alamar blue assay", "type": "functional, organism-based"}, "Plasmodium falciparum": {"system": "Plasmodium falciparum", "assay": "Antimalarial activity against Plasmodium falciparum K1 by [3H]-hypoxanthine incorporation assay", "type": "functional, organism-based"}, "[2]": {"assay": "Cytotoxicity against mouse P388/R cells after 72 hrs by MTT assay", "type": "functional, cell-based", "conditions": "P388, 72 h"}, "[3]": {"assay": "Acute toxicity in sc dosed mouse", "type": "organism-based", "conditions": "in vivo"}, "[4]": {"assay": "Acute toxicity in iv dosed mouse", "type": "organism-based", "conditions": "in vivo"}, "[5]": {"system": "Panel NCI-60 (60 carcinoma cell lines)", "assay": "Cytotoxicity against human NCI60 cells", "type": "functional"}}, "data": [{"smiles": "C/C(=C\\[C@H](O)[C@@H](O)[C@H](C)[C@H]1CC[C@@]2(C)C[C@@H]3[C@H](C)CC(=O)[C@@H]3/C(C=O)=C\\C[C@H]12)C(=O)O", "values": [{"measurement": "IC50", "setting": "[1]", "value": 200, "unit": "µg/mL"}, {"measurement": "IC50", "setting": "Plasmodium falciparum", "value": 13, "unit": "µg/mL"}]}, {"smiles": "CC(C)=C/C=C/[C@H](C)C1=CC[C@]2(C)C[C@H]3[C@H](C(=O)C[C@@]3(C)O)/C(C=O)=C\\C[C@@H]12", "values": [{"measurement": "IC50", "setting": "[2]", "value": "270 to 650", "unit": "nM"}]}, {"smiles": "CC(C)=C[C@H]1C[C@H](C)[C@]2(CC[C@]3(C)C[C@H]4[C@H](C(=O)C[C@@]4(C)O)/C(C=O)=C\\C[C@H]32)O1", "note": "[OPHIOBOLIN A]", "values": [{"measurement": "LD50", "setting": "[3]", "value": 238, "unit": "mg/kg"}, {"measurement": "LD50", "setting": "[4]", "value": 12, "unit": "mg/kg"}, {"measurement": "GI50", "setting": "[5]", "value": 72, "unit": "nM"}, {"measurement": "CC50", "setting": "[5]; read-out: LC50 (the source's name)", "value": 629, "unit": "nM"}]}]}
